Experiments:
cMET = cMET (Homo sapiens, UniProt P08581); assay: MET (cMET) enzyme inhibitory activity, TR-FRET kinase assay; assay type: biochemical; conditions: cMET protein, TK peptide substrate
Method in brief: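 cMET diluted to 2 nM was preincubated 20–30 min at room temperature with compound (10-point 3-fold series from 1 mM DMSO stock). The reaction was started with TK peptide/ATP substrate mix prepared at 2× final (5 μM peptide, 10 mM ATP), run 60 min at room temperature in HEPES pH 7.4 buffer with MnCl2/MgCl2, then EDTA-stopped. Europium anti-phosphotyrosine TR-FRET (ex 340, em 620/665 nm) gave IC50.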

RON = RON (Homo sapiens, UniProt Q04912); assay: RON inhibitory activity, TR-FRET kinase assay; assay type: biochemical; conditions: RON protein, ULight-labeled Poly GT substrate
Method in brief: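 RON was preincubated with compound for 20-30 min at room temperature in HEPES buffer (pH 7.4) with MgCl2 and DTT. Phosphorylation of ULight-Poly GT with ATP ran 60 min before EDTA stop. Europium anti-phosphotyrosine TR-FRET (ex 340, em 620/665 nm) was read and IC50 derived from 10-point 3-fold dilutions.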

RON, sequence (Q04912 25-1400, species assumed): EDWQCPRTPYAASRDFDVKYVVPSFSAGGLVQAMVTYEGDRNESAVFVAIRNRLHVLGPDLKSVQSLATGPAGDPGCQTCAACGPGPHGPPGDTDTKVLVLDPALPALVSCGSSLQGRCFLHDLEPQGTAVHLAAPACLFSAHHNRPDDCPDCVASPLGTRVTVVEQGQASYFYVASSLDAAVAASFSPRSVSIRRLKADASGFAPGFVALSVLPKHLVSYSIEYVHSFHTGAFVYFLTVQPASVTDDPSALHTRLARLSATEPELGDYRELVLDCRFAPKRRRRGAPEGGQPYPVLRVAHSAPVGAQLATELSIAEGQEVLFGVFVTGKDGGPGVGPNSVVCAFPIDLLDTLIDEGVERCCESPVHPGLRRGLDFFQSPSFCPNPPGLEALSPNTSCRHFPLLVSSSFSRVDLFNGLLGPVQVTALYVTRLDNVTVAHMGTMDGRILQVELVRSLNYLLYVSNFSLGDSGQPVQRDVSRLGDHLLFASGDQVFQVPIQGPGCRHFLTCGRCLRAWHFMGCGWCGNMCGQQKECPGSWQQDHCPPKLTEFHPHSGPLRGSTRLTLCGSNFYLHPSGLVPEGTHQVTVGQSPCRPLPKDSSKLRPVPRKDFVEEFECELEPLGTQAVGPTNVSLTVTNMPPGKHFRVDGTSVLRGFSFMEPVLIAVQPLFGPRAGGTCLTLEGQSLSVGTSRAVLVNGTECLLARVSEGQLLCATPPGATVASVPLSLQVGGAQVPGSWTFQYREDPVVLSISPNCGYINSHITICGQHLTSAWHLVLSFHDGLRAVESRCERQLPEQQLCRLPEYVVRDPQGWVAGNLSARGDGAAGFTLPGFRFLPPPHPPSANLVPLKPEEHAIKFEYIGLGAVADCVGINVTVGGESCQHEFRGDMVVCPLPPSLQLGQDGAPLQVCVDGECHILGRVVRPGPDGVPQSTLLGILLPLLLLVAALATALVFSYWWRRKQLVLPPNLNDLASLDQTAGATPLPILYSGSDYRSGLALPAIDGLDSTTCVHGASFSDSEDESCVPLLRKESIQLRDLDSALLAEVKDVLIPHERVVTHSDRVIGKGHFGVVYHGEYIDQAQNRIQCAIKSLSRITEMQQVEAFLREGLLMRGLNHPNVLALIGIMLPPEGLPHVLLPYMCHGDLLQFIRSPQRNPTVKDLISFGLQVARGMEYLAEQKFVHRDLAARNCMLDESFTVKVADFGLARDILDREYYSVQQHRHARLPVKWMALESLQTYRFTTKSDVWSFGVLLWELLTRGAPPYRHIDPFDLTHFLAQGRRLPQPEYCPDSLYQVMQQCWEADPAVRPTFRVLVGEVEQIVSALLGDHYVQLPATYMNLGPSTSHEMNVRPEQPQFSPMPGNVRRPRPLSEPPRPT
cMET, sequence (P08581 25-1390): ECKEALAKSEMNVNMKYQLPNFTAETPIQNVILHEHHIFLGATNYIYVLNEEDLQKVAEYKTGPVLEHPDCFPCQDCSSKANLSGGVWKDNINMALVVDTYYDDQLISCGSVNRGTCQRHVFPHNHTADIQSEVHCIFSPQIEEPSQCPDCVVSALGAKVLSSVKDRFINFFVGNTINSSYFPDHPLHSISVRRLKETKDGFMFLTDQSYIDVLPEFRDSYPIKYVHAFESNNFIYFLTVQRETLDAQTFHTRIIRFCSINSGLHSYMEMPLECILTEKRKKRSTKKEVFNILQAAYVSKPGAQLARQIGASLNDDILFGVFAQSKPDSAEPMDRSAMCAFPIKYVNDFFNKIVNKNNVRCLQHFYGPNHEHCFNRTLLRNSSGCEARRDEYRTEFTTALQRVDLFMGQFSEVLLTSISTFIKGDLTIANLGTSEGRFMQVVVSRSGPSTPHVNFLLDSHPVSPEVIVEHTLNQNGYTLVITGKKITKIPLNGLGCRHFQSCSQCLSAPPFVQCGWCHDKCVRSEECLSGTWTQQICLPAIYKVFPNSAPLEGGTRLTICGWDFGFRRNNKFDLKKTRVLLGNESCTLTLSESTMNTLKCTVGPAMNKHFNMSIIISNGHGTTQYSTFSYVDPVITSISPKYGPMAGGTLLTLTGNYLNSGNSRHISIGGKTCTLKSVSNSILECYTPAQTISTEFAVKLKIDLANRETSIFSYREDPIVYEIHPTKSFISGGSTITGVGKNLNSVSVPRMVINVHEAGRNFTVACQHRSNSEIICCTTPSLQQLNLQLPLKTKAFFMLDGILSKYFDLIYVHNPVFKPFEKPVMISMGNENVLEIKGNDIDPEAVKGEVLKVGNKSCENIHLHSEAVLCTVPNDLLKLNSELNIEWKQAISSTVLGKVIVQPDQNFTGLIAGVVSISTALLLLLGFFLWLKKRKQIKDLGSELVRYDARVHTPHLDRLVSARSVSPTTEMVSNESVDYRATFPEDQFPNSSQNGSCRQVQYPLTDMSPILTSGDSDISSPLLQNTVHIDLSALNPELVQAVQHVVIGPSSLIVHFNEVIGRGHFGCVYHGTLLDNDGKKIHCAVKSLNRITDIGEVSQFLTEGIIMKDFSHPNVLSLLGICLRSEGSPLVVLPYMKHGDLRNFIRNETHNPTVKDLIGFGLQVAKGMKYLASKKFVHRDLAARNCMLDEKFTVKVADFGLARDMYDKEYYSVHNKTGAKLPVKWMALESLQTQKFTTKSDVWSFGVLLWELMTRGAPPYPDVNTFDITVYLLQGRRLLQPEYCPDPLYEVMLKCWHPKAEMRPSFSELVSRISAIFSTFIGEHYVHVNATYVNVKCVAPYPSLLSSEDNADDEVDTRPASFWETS

SMILES | IC50 (cMET) [nM] | IC50 (RON) [nM]
Nc1nccc(Oc2c(F)cc(NC(=O)c3cnn(-c4ccccc4)c3C(F)(F)F)cc2F)c1C#CCO [Example 51, N-(4-((2-amino-3-(3-hydroxyprop-1-yn-1-yl)pyridin-4-yl)oxy)-3,5-difluorophenyl)-1-phenyl-5-(trifluoromethyl)-1H-pyrazole-4-carboxamide] | 500 to 5000 | < 50
CC(O)C#Cc1c(Oc2c(F)cc(NC(=O)c3cnn(-c4ncccc4F)c3C(F)(F)F)cc2F)ccnc1N (stereo not shown) [Example 57, N-(4-((2-amino-3-(3-hydroxybut-1-yn-1-yl)pyridin-4-yl)oxy)-3,5-difluorophenyl)-1-(3-fluoropyridin-2-yl)-5-(trifluoromethyl)-1H-pyrazole-4-carboxamide] | 50 to 500 | < 50
CC(C)(O)C#Cc1c(Oc2c(F)cc(NC(=O)c3cnn(-c4ncccc4F)c3C(F)(F)F)cc2F)ccnc1N [Example 58, N-(4-((2-amino-3-(3-hydroxy-3-methylbut-1-yn-1-yl)pyridin-4-yl)oxy)-3,5-difluorophenyl)-1-(3-fluoropyridin-2-yl)-5-(trifluoromethyl)-1H-pyrazole-4-carboxamide] | 50 to 500 | < 50
COCCCN1CCC(n2ncc(C(=O)Nc3cc(F)c(Oc4ccnc(N)c4Cl)c(F)c3)c2C(F)(F)F)CC1 [Example 59, N-(4-((2-amino-3-chloropyridin-4-yl)oxy)-3,5-difluorophenyl)-1-(1-(3-methoxypropyl)piperidin-4-yl)-5-(trifluoromethyl)-1H-pyrazole-4-carboxamide] | > 5000 | 500 to 5000
CCOCC(=O)N1CCC(n2ncc(C(=O)Nc3cc(F)c(Oc4ccnc(N)c4Cl)c(F)c3)c2C(F)(F)F)CC1 [Example 60, N-(4-((2-amino-3-chloropyridin-4-yl)oxy)-3,5-difluorophenyl)-1-(1-(2-ethoxyacetyl)piperidin-4-yl)-5-(trifluoromethyl)-1H-pyrazole-4-carboxamide] | 500 to 5000 | 500 to 5000
COCCCn1ncc(C(=O)Nc2cc(F)c(Oc3ccnc(N)c3Cl)c(F)c2)c1C(F)(F)F [Example 61, N-[4-[(2-amino-3-chloro-4-pyridyl)oxy]-3,5-difluoro-phenyl]-1-(3-methoxypropyl)-5-(trifluoromethyl)pyrazole-4-carboxamide] | 500 to 5000 | 50 to 500

Further lines, results first:

IC50 (cMET) [nM] | IC50 (RON) [nM] | SMILES
50 to 500 | < 50 | Nc1nccc(Oc2c(F)cc(NC(=O)c3cnn(-c4ccccn4)c3C(F)(F)F)cc2F)c1C#CCO [Example 52, N-(4-((2-amino-3-(3-hydroxyprop-1-yn-1-yl)pyridin-4-yl)oxy)-3,5-difluorophenyl)-1-(pyridin-2-yl)-5-(trifluoromethyl)-1H-pyrazole-4-carboxamide]
50 to 500 | < 50 | Nc1nccc(Oc2c(F)cc(NC(=O)c3cnn(-c4ncccc4F)c3C(F)(F)F)cc2F)c1C#CCO [Example 53, N-(4-((2-amino-3-(3-hydroxyprop-1-yn-1-yl)pyridin-4-yl)oxy)-3,5-difluorophenyl)-1-(3-fluoropyridin-2-yl)-5-(trifluoromethyl)-1H-pyrazole-4-carboxamide]
50 to 500 | < 50 | Nc1nccc(Oc2c(F)cc(NC(=O)c3cnn(-c4ncccc4Cl)c3C(F)(F)F)cc2F)c1C#CCO [Example 54, N-(4-((2-amino-3-(3-hydroxyprop-1-yn-1-yl)pyridin-4-yl)oxy)-3,5-difluorophenyl)-1-(3-chloropyridin-2-yl)-5-(trifluoromethyl)-1H-pyrazole-4-carboxamide]
50 to 500 | < 50 | Nc1nccc(Oc2c(F)cc(NC(=O)c3cnn(-c4ncccn4)c3C(F)(F)F)cc2F)c1C#CCO [Example 55, N-(4-((2-amino-3-(3-hydroxyprop-1-yn-1-yl)pyridin-4-yl)oxy)-3,5-difluorophenyl)-1-(pyrimidin-2-yl)-5-(trifluoromethyl)-1H-pyrazole-4-carboxamide]
50 to 500 | < 50 | Nc1nccc(Oc2c(F)cc(NC(=O)c3cnn(-c4cccnn4)c3C(F)(F)F)cc2F)c1C#CCO [Example 56, N-(4-((2-amino-3-(3-hydroxyprop-1-yn-1-yl)pyridin-4-yl)oxy)-3,5-difluorophenyl)-1-(pyridazin-3-yl)-5-(trifluoromethyl)-1H-pyrazole-4-carboxamide]
